According to ChEMBL document CHEMBL5385899, “Design, synthesis, spectroscopic characterization, single crystal X-ray analysis, in vitro α-amylase inhibition assay, DPPH free radical evaluation and computational studies of naphtho[2,3-d]imidazole-4,9-dione appended 1,2,3-triazoles” (Eur J Med Chem, 2023):
≈ marks a conversion by molar mass, not a printed value.

Legend:
Alpha amylase = target: T1, Alpha amylase (Homo sapiens, UniProt P0DUB6); assay: Inhibition of alpha amylase (unknown origin) using starch as substrate preincubated for 30 mins followed by substrate addition and measured after 30 mins by absorbance based analysis
T1 sequence (P0DUB6 whole entry): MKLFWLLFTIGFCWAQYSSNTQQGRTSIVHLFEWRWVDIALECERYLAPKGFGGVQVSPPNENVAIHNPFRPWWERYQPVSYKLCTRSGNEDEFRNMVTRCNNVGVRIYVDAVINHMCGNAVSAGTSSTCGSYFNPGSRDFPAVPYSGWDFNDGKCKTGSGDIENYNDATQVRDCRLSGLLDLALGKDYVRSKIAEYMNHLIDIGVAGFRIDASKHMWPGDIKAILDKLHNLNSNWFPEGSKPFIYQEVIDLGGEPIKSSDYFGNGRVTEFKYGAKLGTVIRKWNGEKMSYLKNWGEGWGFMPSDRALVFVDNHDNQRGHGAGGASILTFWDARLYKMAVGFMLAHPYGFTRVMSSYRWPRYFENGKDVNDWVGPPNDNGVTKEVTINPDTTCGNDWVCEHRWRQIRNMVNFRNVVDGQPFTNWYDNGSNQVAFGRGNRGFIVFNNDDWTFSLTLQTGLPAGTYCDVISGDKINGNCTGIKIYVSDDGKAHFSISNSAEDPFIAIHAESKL

[1] = Antioxidant activity assessed as DPPH radical scavenging activity incubated for 30 mins under dark condition; type: functional

Compound | IC50 (Alpha amylase) [µg/mL] | IC50 [1] [µg/mL]
O=C1c2ccccc2C(=O)c2c1nc(-c1ccc(F)cc1)n2Cc1cn(-c2ccc(F)cc2)nn1 | 22.04 (≈ 47.2 µM) | 9.57 (≈ 20.5 µM)
COc1ccc(-c2nc3c(n2Cc2cn(-c4ccccc4)nn2)C(=O)c2ccccc2C3=O)c(OC)c1OC | 18.51 (≈ 35.5 µM) | 9.63 (≈ 18.5 µM)
COc1ccc(-c2nc3c(n2Cc2cn(-c4ccc(F)cc4)nn2)C(=O)c2ccccc2C3=O)c(OC)c1OC | 23.94 (≈ 44.4 µM) | 10.41 (≈ 19.3 µM)
COc1ccc(-c2nc3c(n2Cc2cn(-c4ccc([N+](=O)[O-])cc4)nn2)C(=O)c2ccccc2C3=O)c(OC)c1 | 20.24 (≈ 37.7 µM) | 10.07 (≈ 18.8 µM)
CCCCn1cc(Cn2c(-c3cccc(OC)c3)nc3c2C(=O)c2ccccc2C3=O)nn1 | 21.11 (≈ 47.8 µM) | 9.82 (≈ 22.2 µM)
COc1ccc(-c2nc3c(n2Cc2cn(-c4ccc(C)cc4)nn2)C(=O)c2ccccc2C3=O)c(OC)c1OC | 22.87 (≈ 42.7 µM) | 10.19 (≈ 19 µM)
COc1ccc(-c2nc3c(n2Cc2cn(-c4ccc([N+](=O)[O-])cc4)nn2)C(=O)c2ccccc2C3=O)c(OC)c1OC | 18.11 (≈ 32 µM) | 10.1 (≈ 17.8 µM)
O=C1c2ccccc2C(=O)c2c1nc(-c1ccc(F)cc1)n2Cc1cn(-c2ccccc2)nn1 | 26.01 (≈ 57.9 µM) | 10.32 (≈ 23 µM)
O=C1c2ccccc2C(=O)c2c1nc(-c1ccc(F)cc1)n2Cc1cn(-c2ccc([N+](=O)[O-])cc2)nn1 | 18.63 (≈ 37.7 µM) | 9.69 (≈ 19.6 µM)
CCCCn1cc(Cn2c(-c3ccc(F)cc3)nc3c2C(=O)c2ccccc2C3=O)nn1 | 19.72 (≈ 45.9 µM) | 9.41 (≈ 21.9 µM)
CCCCn1cc(Cn2c(-c3ccc(OC)c(OC)c3OC)nc3c2C(=O)c2ccccc2C3=O)nn1 | 23.49 (≈ 46.8 µM) | 9.23 (≈ 18.4 µM)
CCCCn1cc(Cn2c(-c3ccc(OC)cc3)nc3c2C(=O)c2ccccc2C3=O)nn1 | 24.25 (≈ 54.9 µM) | 10.76 (≈ 24.4 µM)
COc1ccc(-c2nc3c(n2Cc2cn(-c4ccccc4)nn2)C(=O)c2ccccc2C3=O)c(OC)c1 | 25.44 (≈ 51.8 µM) | 11.09 (≈ 22.6 µM)
COc1ccc(-n2cc(Cn3c(-c4ccc(OC)c(OC)c4OC)nc4c3C(=O)c3ccccc3C4=O)nn2)cc1 | 17.83 (≈ 32.3 µM) | 8.99 (≈ 16.3 µM)
CCCCn1cc(Cn2c(-c3ccc(OC)cc3OC)nc3c2C(=O)c2ccccc2C3=O)nn1 | 20.64 (≈ 43.8 µM) | 10.26 (≈ 21.8 µM)
COc1ccc(-n2cc(Cn3c(-c4ccc(OC)cc4OC)nc4c3C(=O)c3ccccc3C4=O)nn2)cc1 | 19.3 (≈ 37 µM) | 10.65 (≈ 20.4 µM)
Cc1cc(C(C)(C)C)c(O)c(C(C)(C)C)c1 [BUTYLATED HYDROXYTOLUENE] | – | 9.41 (≈ 42.7 µM)

More lines, now with the values ahead:

IC50 (Alpha amylase) [µg/mL] | IC50 [1] [µg/mL] | Compound
25.49 (≈ 51.9 µM) | 9.55 (≈ 19.4 µM) | COc1ccc(-c2nc3c(n2Cc2cn(-c4ccc(OC)cc4)nn2)C(=O)c2ccccc2C3=O)cc1
19.87 (≈ 41.4 µM) | 10.84 (≈ 22.6 µM) | COc1ccc(-n2cc(Cn3c(-c4ccc(F)cc4)nc4c3C(=O)c3ccccc3C4=O)nn2)cc1
23.81 (≈ 46.7 µM) | 9.92 (≈ 19.5 µM) | COc1ccc(-c2nc3c(n2Cc2cn(-c4ccc(F)cc4)nn2)C(=O)c2ccccc2C3=O)c(OC)c1
24.58 (≈ 51.7 µM) | 10.14 (≈ 21.3 µM) | COc1ccc(-c2nc3c(n2Cc2cn(-c4ccc(C)cc4)nn2)C(=O)c2ccccc2C3=O)cc1
18.42 (≈ 38.7 µM) | 9.5 (≈ 20 µM) | COc1cccc(-c2nc3c(n2Cc2cn(-c4ccc(C)cc4)nn2)C(=O)c2ccccc2C3=O)c1
25.07 (≈ 54.3 µM) | 10.05 (≈ 21.8 µM) | COc1cccc(-c2nc3c(n2Cc2cn(-c4ccccc4)nn2)C(=O)c2ccccc2C3=O)c1
21.71 (≈ 42.9 µM) | 11.19 (≈ 22.1 µM) | COc1ccc(-c2nc3c(n2Cc2cn(-c4ccc(C)cc4)nn2)C(=O)c2ccccc2C3=O)c(OC)c1
18.41 (≈ 38.4 µM) | 9.3 (≈ 19.4 µM) | COc1cccc(-c2nc3c(n2Cc2cn(-c4ccc(F)cc4)nn2)C(=O)c2ccccc2C3=O)c1
18.62 (≈ 36.8 µM) | 10.88 (≈ 21.5 µM) | COc1ccc(-c2nc3c(n2Cc2cn(-c4ccc([N+](=O)[O-])cc4)nn2)C(=O)c2ccccc2C3=O)cc1
24.19 (≈ 50.5 µM) | 10.58 (≈ 22.1 µM) | COc1ccc(-c2nc3c(n2Cc2cn(-c4ccc(F)cc4)nn2)C(=O)c2ccccc2C3=O)cc1
22.73 (≈ 46.2 µM) | 9.8 (≈ 19.9 µM) | COc1ccc(-n2cc(Cn3c(-c4cccc(OC)c4)nc4c3C(=O)c3ccccc3C4=O)nn2)cc1
24.08 (≈ 52 µM) | 9.61 (≈ 20.7 µM) | Cc1ccc(-n2cc(Cn3c(-c4ccc(F)cc4)nc4c3C(=O)c3ccccc3C4=O)nn2)cc1
21.18 (≈ 41.8 µM) | 9.2 (≈ 18.2 µM) | COc1cccc(-c2nc3c(n2Cc2cn(-c4ccc([N+](=O)[O-])cc4)nn2)C(=O)c2ccccc2C3=O)c1
20.73 (≈ 44.9 µM) | 10.15 (≈ 22 µM) | COc1ccc(-c2nc3c(n2Cc2cn(-c4ccccc4)nn2)C(=O)c2ccccc2C3=O)cc1
